The test system of assay [1] is cell-surface Mac-1 adhesion to immobilized fibrinogen (HL-60 cells). Description: Mac-1/Fibrinogen cell-based screening assay. Details: species or system human. As to conditions: Homo sapiens, HL-60, HL-60 cells; read-out: Mac-1/Fgn Cell based Assay IC50. The essentials:
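Wells coated with fibrinogen and blocked with PVP. Labeled HL-60 cells (2×10^6 cells/mL in RPMI/0.05% BSA/0.2 mM MnCl2) preincubated with DMSO-diluted compounds for 10 min at 37° C, then left to adhere 30 min at 37° C/5% CO2. Unbound cells washed off with TBS.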

The test system of assay [2] is T lymphocyte proliferation (C57BI/6 spleen cells with irradiated BALB/c spleen cells). Description: Mixed lymphocyte reaction (MLR), one-way. The format is cell-based, mice. Particulars: read-out: MLR IC50. Summed up: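 Irradiated BALB/c spleen cells mixed with C57BI/6 spleen cells in RPMI1640/10% heat-inactivated FBS/2-mercaptoethanol, with serial antagonist dilutions; 3 days at 5% CO2. Tritiated thymidine (0.5 μCi/well) added on day 3; incorporation counted by liquid scintillation after a further 6 h.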

Like-named read-outs stand apart in the source and are kept apart here.

As for `COc1cccc(C(=O)NC[C@H](NC(=O)c2ccc(C(=O)NCc3cccc(O)c3)cc2Cl)C(=O)O)c1` [Example 76, N-[2-chloro-4-[[[(3-hydroxyphenyl)methyl]amino]-carbonyl]benzoyl]-3-(3-methoxybenzoylamino)-L-alanine], the IC50 in assay [1] is 0.043 µM; in assay [2] (Mus musculus, T-lymphocyte) it was 0.31 µM.

`O=C1CC[C@@H](C(=O)NC[C@H](NC(=O)c2ccc(C(=O)NCc3cccc(O)c3)cc2Cl)C(=O)O)O1` [Example 96]: the IC50 in assay [2] (Mus musculus, T-lymphocyte) is 1.3 µM.

Turning to `O=C(NCc1cccc(O)c1)c1ccc(C(=O)N[C@@H](CNC(=O)C2CC2)C(=O)O)c(Cl)c1` [Example 97], the IC50 in assay [2] (Mus musculus, T-lymphocyte) stood at 1.55 µM.

For `O=C(NCc1cccc(O)c1)c1ccc(C(=O)N[C@@H](CNC(=O)C2(c3ccccc3)CC2)C(=O)O)c(Cl)c1` [Example 99], the IC50 in assay [2] (Mus musculus, T-lymphocyte) stood at 2 µM.

Regarding `O=C(NCc1cccc(O)c1)c1ccc(C(=O)N[C@@H](CNC(=O)C2CCC2)C(=O)O)c(Cl)c1` [Example 100], in assay [2] (Mus musculus, T-lymphocyte), the IC50 stood at 0.705 µM.

With `O=C(NCc1cccc(O)c1)c1ccc(C(=O)N[C@@H](CNC(=O)C2CCCC2)C(=O)O)c(Cl)c1` [Example 101], the IC50 was 0.079 µM in assay [1] and 0.565 µM in assay [2] (Mus musculus, T-lymphocyte).

With `COCCC1(C(=O)NC[C@H](NC(=O)c2ccc(C(=O)NCc3cccc(O)c3)cc2Cl)C(=O)O)CCCC1` [Example 102], in assay [2] (Mus musculus, T-lymphocyte), the IC50 was found to be 0.4 µM.

Take `O=C(NCc1cccc(O)c1)c1ccc(C(=O)N[C@@H](CNC(=O)C2(c3ccccc3)CCCC2)C(=O)O)c(Cl)c1` [Example 103]: the IC50 in assay [1] came to 0.123 µM; in assay [2] (Mus musculus, T-lymphocyte) it was 0.52 µM.

For `O=C(NCc1cccc(O)c1)c1ccc(C(=O)N[C@@H](CNC(=O)C2CCCCC2)C(=O)O)c(Cl)c1` [Example 104], the IC50 worked out at 0.082 µM in assay [1] and 0.775 µM in assay [2] (Mus musculus, T-lymphocyte).

Consider `CC1(C(=O)NC[C@H](NC(=O)c2ccc(C(=O)NCc3cccc(O)c3)cc2Cl)C(=O)O)CCCCC1` [Example 105], for which the IC50 in assay [1] stood at 0.151 µM; in assay [2] (Mus musculus, T-lymphocyte), 0.28 µM.

With `O=C(NCc1cccc(O)c1)c1ccc(C(=O)N[C@@H](CNC(=O)[C@H](CC2CCCCC2)n2cccc2)C(=O)O)c(Cl)c1` [Example 110], in assay [2] (Mus musculus, T-lymphocyte), the IC50 is 10 µM.

Regarding `Cc1noc(C)c1CCC(=O)NC[C@H](NC(=O)c1ccc(C(=O)NCc2cccc(O)c2)cc1Cl)C(=O)O` [Example 111], the IC50 in assay [2] (Mus musculus, T-lymphocyte) is 0.5 µM.

For `O=C(CCN1CCCCC1)NC[C@H](NC(=O)c1ccc(C(=O)NCc2cccc(O)c2)cc1Cl)C(=O)O` [Example 112], the IC50 is 0.161 µM in assay [1] and 0.375 µM in assay [2] (Mus musculus, T-lymphocyte).

In the case of `C/C=C/C(=O)NC[C@H](NC(=O)c1ccc(C(=O)NCc2cccc(O)c2)cc1Cl)C(=O)O` [Example 113], the IC50 in assay [2] (Mus musculus, T-lymphocyte) was 0.35 µM.

For the molecule `COc1ccc(/C=C/C(=O)NC[C@H](NC(=O)c2ccc(C(=O)NCc3cccc(O)c3)cc2Cl)C(=O)O)cc1` [Example 114], the IC50 in assay [2] (Mus musculus, T-lymphocyte) was determined as 1.65 µM.

Take `O=C(/C=C/c1cccnc1)NC[C@H](NC(=O)c1ccc(C(=O)NCc2cccc(O)c2)cc1Cl)C(=O)O` [Example 115]: the IC50 in assay [2] (Mus musculus, T-lymphocyte) is 1.35 µM.

Regarding `O=C(/C=C/c1cccs1)NC[C@H](NC(=O)c1ccc(C(=O)NCc2cccc(O)c2)cc1Cl)C(=O)O` [Example 116], the IC50 was 0.086 µM in assay [1] and 1.3 µM in assay [2] (Mus musculus, T-lymphocyte).

For the molecule `CC(=O)Oc1ccccc1C(=O)NC[C@H](NC(=O)c1ccc(C(=O)NCc2cccc(O)c2)cc1Cl)C(=O)O` [Example 117], the IC50 is 0.131 µM in assay [1] and 0.29 µM in assay [2] (Mus musculus, T-lymphocyte).

For `Nc1cccc(C(=O)NC[C@H](NC(=O)c2ccc(C(=O)NCc3cccc(O)c3)cc2Cl)C(=O)O)c1` [Example 118], the IC50 is 0.016 µM in assay [1] and 0.145 µM in assay [2].

For the molecule `NS(=O)(=O)c1ccc(C(=O)NC[C@H](NC(=O)c2ccc(C(=O)NCc3cccc(O)c3)cc2Cl)C(=O)O)cc1` [Example 119], the IC50 in assay [1] was 0.468 µM; in assay [2] (Mus musculus, T-lymphocyte), 0.42 µM.

Consider `O=C(NCc1cccc(O)c1)c1ccc(C(=O)N[C@@H](CNC(=O)c2ccccc2Br)C(=O)O)c(Cl)c1` [Example 120], for which the IC50 in assay [2] (Mus musculus, T-lymphocyte) is 0.89 µM.

As to `O=C(NCc1cccc(O)c1)c1ccc(C(=O)N[C@@H](CNC(=O)c2cccc(Br)c2)C(=O)O)c(Cl)c1` [Example 121], the IC50 in assay [1] came to 0.08 µM; in assay [2] (Mus musculus, T-lymphocyte), 0.53 µM.

For the molecule `O=C(NCc1cccc(O)c1)c1ccc(C(=O)N[C@@H](CNC(=O)c2ccccc2Cl)C(=O)O)c(Cl)c1` [Example 122], the IC50 in assay [2] (Mus musculus, T-lymphocyte) was found to be 0.925 µM.

With `O=C(NCc1cccc(O)c1)c1ccc(C(=O)N[C@@H](CNC(=O)c2cccc(Cl)c2)C(=O)O)c(Cl)c1` [Example 123], the IC50 in assay [1] stood at 0.02 µM; in assay [2] (Mus musculus, T-lymphocyte) it was 0.3 µM.

Regarding `O=C(NCc1cccc(O)c1)c1ccc(C(=O)N[C@@H](CNC(=O)c2ccc(Cl)cc2)C(=O)O)c(Cl)c1` [Example 124], the IC50 in assay [2] (Mus musculus, T-lymphocyte) turned out to be 2.5 µM.

As for `N#Cc1cccc(C(=O)NC[C@H](NC(=O)c2ccc(C(=O)NCc3cccc(O)c3)cc2Cl)C(=O)O)c1` [Example 126], the IC50 worked out at 0.027 µM in assay [1] and 0.4 µM in assay [2] (Mus musculus, T-lymphocyte).

Take `CN(C)c1cccc(C(=O)NC[C@H](NC(=O)c2ccc(C(=O)NCc3cccc(O)c3)cc2Cl)C(=O)O)c1` [Example 127]: the IC50 in assay [1] is 0.071 µM; in assay [2] (Mus musculus, T-lymphocyte), 0.455 µM.

Turning to `CN(C)c1ccc(C(=O)NC[C@H](NC(=O)c2ccc(C(=O)NCc3cccc(O)c3)cc2Cl)C(=O)O)cc1` [Example 128], the IC50 in assay [2] (Mus musculus, T-lymphocyte) turned out to be 4.9 µM.

On to `CCOc1ccc(C(=O)NC[C@H](NC(=O)c2ccc(C(=O)NCc3cccc(O)c3)cc2Cl)C(=O)O)cc1` [Example 130], for which the IC50 in assay [2] (Mus musculus, T-lymphocyte) worked out at 3 µM.

Take `O=C(NCc1cccc(O)c1)c1ccc(C(=O)N[C@@H](CNC(=O)c2cccc(F)c2)C(=O)O)c(Cl)c1` [Example 131]: the IC50 in assay [1] was determined as 0.012 µM; in assay [2] (Mus musculus, T-lymphocyte), 0.215 µM.

Consider `COc1ccc(C(=O)NC[C@H](NC(=O)c2ccc(C(=O)NCc3cccc(O)c3)cc2Cl)C(=O)O)cc1` [Example 135], for which the IC50 in assay [2] (Mus musculus, T-lymphocyte) stood at 2.64 µM.

Consider `Cc1ccc(C(=O)NC[C@H](NC(=O)c2ccc(C(=O)NCc3cccc(O)c3)cc2Cl)C(=O)O)cc1` [Example 139], for which, in assay [2] (Mus musculus, T-lymphocyte), the IC50 worked out at 1.75 µM.

For `CCCCCOc1ccc(C(=O)NC[C@H](NC(=O)c2ccc(C(=O)NCc3cccc(O)c3)cc2Cl)C(=O)O)cc1` [Example 143], in assay [2] (Mus musculus, T-lymphocyte), the IC50 was found to be 12 µM.

For `O=C(NCc1cccc(O)c1)c1ccc(C(=O)N[C@@H](CNC(=O)c2ccccc2Oc2ccccc2)C(=O)O)c(Cl)c1` [Example 144], in assay [2] (Mus musculus, T-lymphocyte), the IC50 stood at 1.8 µM.

As to `COc1cc(C(=O)NC[C@H](NC(=O)c2ccc(C(=O)NCc3cccc(O)c3)cc2Cl)C(=O)O)cc(OC)c1OC` [Example 147], in assay [2] (Mus musculus, T-lymphocyte), the IC50 amounted to 4.6 µM.

In the case of `O=C(NCc1cccc(O)c1)c1ccc(C(=O)N[C@@H](CNC(=O)c2ccc([N+](=O)[O-])o2)C(=O)O)c(Cl)c1` [Example 149], the IC50 in assay [2] (Mus musculus, T-lymphocyte) came to 0.95 µM.

Consider `Cc1noc(C)c1C(=O)NC[C@H](NC(=O)c1ccc(C(=O)NCc2cccc(O)c2)cc1Cl)C(=O)O` [Example 153], for which the IC50 in assay [1] was determined as 0.804 µM.

Turning to `Cc1cccc(C(=O)NC[C@H](NC(=O)c2ccc(C(=O)NCc3cccc(O)c3)cc2Cl)C(=O)O)n1` [Example 163], the IC50 in assay [2] (Mus musculus, T-lymphocyte) is 1.55 µM.

`O=C(NCc1cccc(O)c1)c1ccc(C(=O)N[C@@H](CNC(=O)c2cccnc2)C(=O)O)c(Cl)c1` [Example 165]: the IC50 in assay [2] (Mus musculus, T-lymphocyte) worked out at 0.8 µM.

With `O=C(NCc1cccc(O)c1)c1ccc(C(=O)N[C@@H](CNS(=O)(=O)c2ccccc2)C(=O)O)c(Cl)c1` [Example 360, 3-(phenylsulfonylamino)-N-[2-chloro-4-[[[(3-hydroxyphenyl)methyl]amino]carbonyl]benzoyl]-L-alanine], the IC50 in assay [2] (Mus musculus, T-lymphocyte) turned out to be 4.6 µM.

On to `CC(=O)Nc1nc(C)c(S(=O)(=O)NC[C@H](NC(=O)c2ccc(C(=O)N[C@H](C)c3cccc4ccccc34)cc2Cl)C(=O)O)s1` [Example 362], for which the IC50 in assay [2] (Mus musculus, T-lymphocyte) is 15 µM.

As for `O=C(NCc1ccc(C(=O)N[C@@H](CNC(=O)c2ccccc2)C(=O)O)c(Cl)c1)c1cccc(O)c1` [Example 364, N-[2-chloro-4-[[(3-hydroxyphenyl)carbonyl]aminomethyl]benzoyl]-3-benzoylamino-L-alanine], the IC50 in assay [2] (Mus musculus, T-lymphocyte) turned out to be 2.85 µM.

As for `O=C(NC[C@H](NC(=O)c1ccc(CNC(=O)c2ccccc2O)cc1Cl)C(=O)O)c1ccccc1` [Example 365], the IC50 in assay [2] (Mus musculus, T-lymphocyte) was 9.5 µM.

`O=C(NCc1ccc(C(=O)N[C@@H](CNC(=O)c2ccccc2)C(=O)O)c(Cl)c1)c1cc(O)cc(O)c1` [Example 366]: the IC50 in assay [2] (Mus musculus, T-lymphocyte) turned out to be 1.4 µM.

With `O=C(NCc1ccc(C(=O)N[C@@H](CNC(=O)c2ccccc2)C(=O)O)c(Cl)c1)c1ccc2[nH]ccc2c1` [Example 368], the IC50 in assay [2] (Mus musculus, T-lymphocyte) amounted to 3.85 µM.

On to `O=C(NCc1ccc(C(=O)N[C@@H](CNC(=O)c2ccccc2)C(=O)O)c(Cl)c1)c1ccc2cc[nH]c2c1` [Example 369], for which the IC50 in assay [2] (Mus musculus, T-lymphocyte) came out at 3.2 µM.

In the case of `N=C(N)NC[C@H](NC(=O)c1ccc(C(=O)NCc2cccc(O)c2)cc1Cl)C(=O)O` [Example 371, N-[2-chloro-4-[[[(3-hydroxyphenyl)methyl]amino]-carbonyl]benzoyl]-3-(aminoiminomethyl)amino-L-alanine], the IC50 in assay [2] (Mus musculus, T-lymphocyte) was 3.5 µM.

For `O=C(NC[C@H](NC(=O)c1ccc(/C=C/Cc2ccccc2)cc1Cl)C(=O)O)c1cccs1` [Example 373, N-[2-chloro-4-(3-phenyl-1-propenyl)benzoyl]-3-(thiophene-2-carbonyl)amino-L-alanine], in assay [2] (Mus musculus, T-lymphocyte), the IC50 came to 12.5 µM.

As to `O=C(NC[C@H](NC(=O)c1ccc(C(=O)[C@H]2C[C@@H]2c2ccccc2)cc1Cl)C(=O)O)c1cccs1` [Example 377], the IC50 in assay [2] (Mus musculus, T-lymphocyte) is 9.5 µM.

Consider `O=C(CCc1ccccc1)c1ccc(C(=O)N[C@@H](CNC(=O)c2cccs2)C(=O)O)c(Cl)c1` [Example 378], for which the IC50 in assay [2] (Mus musculus, T-lymphocyte) stood at 6.4 µM.

These data come from patent publication US20040006236A1, “Diaminopropionic acid derivatives” (priority 1999, published 2004).
